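These data come from cells grown in 96-well plates and exposed to compound for 48 hours at five concentrations. GI50 marks 50% less growth.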 Activity calls are given as the source filed them. Cut-off read from the data, not from the text of the source: active = GI50 up to about 1.1 µM and inactive = higher.
Experiments:
Test in all cases: NCI tumour cell line growth inhibition, 48 h
NCI-H522 = test system: NCI-H522
SK-MEL-5 = test system: SK-MEL-5
SNB-75 = test system: SNB-75
Malme-3M = test system: Malme-3M
SF-268 = test system: SF-268
UACC-257 = test system: UACC-257
A498 = test system: A498
HOP-92 = test system: HOP-92
SN12C = test system: SN12C
A549 = test system: A549
MOLT-4 = test system: MOLT-4
UO-31 = test system: UO-31
HL-60 = test system: HL-60
SF-295 = test system: SF-295
OVCAR-3 = test system: OVCAR-3
CCRF-CEM = test system: CCRF-CEM
SK-MEL-28 = test system: SK-MEL-28
SW-620 = test system: SW-620
CAKI-1 = test system: CAKI-1
M14 = test system: M14

Measured: GI50

O=c1c2c3c(sc2nc(CN2CCNCC2)n1-c1ccccc1)CCCC3
inactive: NCI-H522 > 100 µM | SK-MEL-5 > 100 µM | SNB-75 34.8 µM | Malme-3M > 100 µM | SF-268 65.5 µM | UACC-257 > 100 µM | A498 > 100 µM | HOP-92 > 100 µM | SN12C > 100 µM | A549 > 100 µM | MOLT-4 > 100 µM | UO-31 54.2 µM | HL-60 > 100 µM | SF-295 > 100 µM | OVCAR-3 > 100 µM | CCRF-CEM > 100 µM | SK-MEL-28 > 100 µM | SW-620 > 100 µM | CAKI-1 90.8 µM | M14 > 100 µM

CN(C)c1n/c(=N/c2ccc(/N=c3\nc(N(C)C)ss3)cc2)ss1
inactive: NCI-H522 11.5 µM | SK-MEL-5 22.4 µM | SNB-75 13.5 µM | Malme-3M 22.5 µM | SF-268 37.9 µM | UACC-257 27.5 µM | A498 33 µM | HOP-92 > 100 µM | SN12C 40.3 µM | A549 37.9 µM | MOLT-4 8.49 µM | UO-31 44 µM | HL-60 12.4 µM | SF-295 39.8 µM | OVCAR-3 28.2 µM | CCRF-CEM 4.99 µM | SK-MEL-28 16.8 µM | SW-620 > 40.7 µM | CAKI-1 > 44.3 µM | M14 12.9 µM

CCOC(=O)Nc1ccc(S(=O)(=O)NCCCl)cc1.CCOC(=O)Nc1ccc(S(=O)(=O)NCCCl)cc1.O=C(O)c1ccc(/N=N/Cl)cc1O
inactive: NCI-H522 > 100 µM | SK-MEL-5 > 100 µM | SNB-75 > 100 µM | Malme-3M > 100 µM | SF-268 > 100 µM | UACC-257 > 100 µM | A498 > 100 µM | HOP-92 > 100 µM | SN12C > 100 µM | A549 > 100 µM | MOLT-4 > 100 µM | UO-31 > 100 µM | HL-60 > 100 µM | SF-295 > 100 µM | OVCAR-3 > 100 µM | CCRF-CEM > 100 µM | SK-MEL-28 > 100 µM | SW-620 > 100 µM | CAKI-1 > 100 µM | M14 > 100 µM

CC1(C)COC2C(N(Cc3ccccc3)Cc3ccccc3)C(=O)N21 (stereo not given)
inactive: NCI-H522 19.4 µM | SK-MEL-5 37.2 µM | SNB-75 20 µM | Malme-3M 38.6 µM | SF-268 25.2 µM | UACC-257 98.6 µM | A498 48.8 µM | HOP-92 29.3 µM | SN12C 47.3 µM | A549 32.6 µM | MOLT-4 25.9 µM | UO-31 64.3 µM | HL-60 22.3 µM | SF-295 32.1 µM | OVCAR-3 30.5 µM | CCRF-CEM 32.7 µM | SK-MEL-28 42.3 µM | SW-620 35.9 µM | CAKI-1 39.2 µM | M14 23.1 µM

N#CC1(C#N)C2C=CC(C3CCC=C32)C1(C#N)C#N (stereo not given)
inactive: NCI-H522 2.96 µM | SK-MEL-5 > 10 µM | SNB-75 > 10 µM | Malme-3M 2.57 µM | SF-268 > 10 µM | UACC-257 > 10 µM | A498 > 10 µM | HOP-92 > 10 µM | SN12C > 10 µM | A549 > 10 µM | MOLT-4 2.14 µM | UO-31 > 4.32 µM | HL-60 1.68 µM | SF-295 > 10 µM | OVCAR-3 > 10 µM | CCRF-CEM 1.91 µM | SK-MEL-28 > 10 µM | SW-620 1.77 µM | CAKI-1 6.37 µM | M14 5.79 µM
